From PMC11254100 (Angewandte Chemie (International ed. in English), 2024)

Target: CAHEX:6HIS (Human immunodeficiency virus type 1 group M subtype B, UniProt P12493, A146C/E177C/M317A/W316A)
Conditions: BLI, CAHEX:6HIS immobilized on HIS-affinity probes

For Lenacapvir, the koff was 2.978 ± 0.015 x10^−4 s^−1 and the kon was 1.040 ± 0.007 x10^4 M^−1s^−1.
